A short description of data set [1]: In vitro skin permeation assessment of dutasteride (Franz cell). The format is in vitro ADME. The note with it: 1-24 hours, human epidermis. The protocol: To investigate the impact of the siliconic components in dutasteride-loaded formulations, in vitro tests were conducted to measure the permeation through and retention into skin epidermis of a 1% dutasteride-loaded silicone gel formulation made according to the process of Example 2. As a comparison, a gel spray of dutasteride without silicone (PEG-8 Dimethicone or Poly(methylsilsesquioxane)) was also prepared. An original Franz-type diffusion cell system was modified to accommodate widened vertical columns and removal of the bowl shape. The diffusion area was 0.636 cm^2 with a receiver capacity of approximately 3.0 mL. The receiver volume for each cell was individually calibrated.
Human epidermis samples were prepared according to standard protocols. The samples were obtained from abdominal skin of two 30-50 year old Eurasiatic donors. The samples were used as a membrane between the two chambers in the Franz cells. […]
Before being mounted on the Franz cell, each epidermal sheet was visually inspected to avoid any possible defects. Additionally, the electrical resistance of isolated epidermis was measured to ensure the integrity of the barrier membrane. […]
The prepared Franz cells were stirred continuously using a magnetic stir bar at a temperature of 37° C. […] After standing for 24 hours, the supernatant was centrifuged at 3000 rpm for 10 minutes at 23° C. and analyzed by HPLC. […]

The conditions of data set [2]: experimental; cited from earlier work.
The conditions of data set [3]: cited from earlier work.
The conditions of data set [4]: in vivo; cited from earlier work.
Data set [5] relates to serum DHT. Particulars: cited from earlier work; for reduction of serum DHT levels: oral administration / oral formulations.
The conditions of data set [6]: after oral administration; cited from earlier work.

Several values for one entry are separate records, joined by “and”; a condition that tells them apart may be missing. Equal values may be shown once. Read-outs that look alike come from different tables or passages of the source.

In the case of `C[C@]12C=CC(=O)N[C@@H]1CC[C@@H]1[C@@H]2CC[C@]2(C)[C@@H](C(=O)Nc3cc(C(F)(F)F)ccc3C(F)(F)F)CC[C@@H]12` [dutasteride, Dutasteride], the “dutasteride in the receiver compartment” value in data set [1] is recorded as “never detected”. The logP in data set [2] is 6.8. Besides, the plasma protein binding in data set [3] is listed as 99%. Besides, the volume of distribution in data set [4] is given as 300 to 500 L. Besides, the “suppression of DHT production” value in data set [5] (after sustained oral administration) is “up to 99%”.
For the compound `CC(C)(C)NC(=O)[C@H]1CC[C@H]2[C@@H]3CC[C@H]4NC(=O)C=C[C@]4(C)[C@H]3CC[C@]12C` [finasteride, Finasteride], the logP in data set [2] was 3.03. Moreover, the volume of distribution in data set [4] is reported as 44 to 96 L. Moreover, the “reduction of serum DHT levels” value was 60 to 70% and 60-70% in data set [5]; 65-70% in data set [5] (listed as Finasteride). For the same compound, in data set [6], the “systemic clearance (CL)” value was 165 mL/min.

The values above are taken from patent US20230181430A1, “TOPICAL FORMULATIONS COMPRISING DUTASTERIDE FOR TREATING DERMATOLOGICAL DISORDERS INCLUDING MALE PATTERN BALDNESS” (XYON Health Inc., priority 2020, published 2023).
